Test results as given in ChEMBL document CHEMBL4311942, “Design of Trp-Rich Dodecapeptides with Broad-Spectrum Antimicrobial Potency and Membrane-Disruptive Mechanism” (J Med Chem, 2019).
Converted amounts (≈) assume the structure as drawn. The source made the active and inactive calls. No cut-off for these calls is given here. Where a SMILES comes first, the peptide text is derived from it.

Columns and labels:
[1] = test system: Staphylococcus aureus; experiment: Antibacterial activity against Staphylococcus aureus ATCC 29213 incubated for 18 to 24 hrs by broth microdilution method; assay type: functional
[2] = test system: Escherichia coli; experiment: Antibacterial activity against Escherichia coli ATCC 25922 incubated for 18 to 24 hrs by broth microdilution method; assay type: functional
[3] = test system: Staphylococcus epidermidis; experiment: Antibacterial activity against Staphylococcus epidermidis ATCC 12228 incubated for 18 to 24 hrs by broth microdilution method; assay type: functional
[4] = test system: Escherichia coli; experiment: Antibacterial activity against Escherichia coli 20411 clinical isolate incubated for 18 to 24 hrs by broth microdilution method; assay type: functional
[5] = test system: Acinetobacter baumannii; experiment: Antibacterial activity against Acinetobacter baumannii AB1901 clinical isolate incubated for 18 to 24 hrs by broth microdilution method; assay type: functional
[6] = test system: Acinetobacter baumannii; experiment: Antibacterial activity against Acinetobacter baumannii AB1902 clinical isolate incubated for 18 to 24 hrs by broth microdilution method; assay type: functional
[7] = test system: Staphylococcus aureus; experiment: Antibacterial activity against Staphylococcus aureus 11011 incubated for 18 to 24 hrs by broth microdilution method; assay type: functional
[8] = test system: Erythrocyte; experiment: Haemolytic activity in human erythrocytes assessed as lowest concentration causing 5% hemolysis after 1 hr; assay type: ADME, cell-based
[9] = Cytotoxicity against mouse RAW264.7 cells assessed as cell survival at <= 32 uM after 24 hrs by MTT assay relative to control; assay type: cell-based; settings: RAW264.7 cells, up to 32 µM, read-out: Activity
[10] = Cytotoxicity against mouse RAW264.7 cells assessed as cell survival at […] after 24 hrs by MTT assay relative to control; assay type: cell-based; settings: read-out: Activity
[11] = test system: Staphylococcus aureus; experiment: Antibacterial activity against Staphylococcus aureus ATCC 29213 incubated for 2 hrs in presence of sodium phosphate buffer at pH 2 by broth microdilution method; assay type: functional; settings: ATCC 29213, 2 h
[12] = test system: Escherichia coli; experiment: Bactericidal activity against Escherichia coli ATCC 25922 assessed as reduction in bacterial growth at 2 times MIC after 60 mins by time kill assay relative to control; assay type: functional
[13] = test system: Escherichia coli; experiment: Bactericidal activity against Escherichia coli ATCC 25922 assessed as reduction in bacterial growth at 4 times MIC after 30 mins by time kill assay relative to control; assay type: functional
[14] = test system: Escherichia coli; experiment: Antibacterial activity against Escherichia coli ATCC 25922 in presence of KCl by broth microdilution method; assay type: functional
[15] = test system: Escherichia coli; experiment: Antibacterial activity against Escherichia coli ATCC 25922 in presence of NH4Cl by broth microdilution method; assay type: functional
[16] = test system: Escherichia coli; experiment: Antibacterial activity against Escherichia coli ATCC 25922 in presence of ZnCl2 by broth microdilution method; assay type: functional
[17] = test system: Escherichia coli; experiment: Antibacterial activity against Escherichia coli ATCC 25922 in presence of 12.5% serum by broth microdilution method; assay type: functional
[18] = test system: Escherichia coli; experiment: Antibacterial activity against Escherichia coli ATCC 25922 in presence of 25% serum by broth microdilution method; assay type: functional
[19] = test system: Escherichia coli; experiment: Antibacterial activity against Escherichia coli ATCC 25922 in presence of 50% serum by broth microdilution method; assay type: functional
[20] = test system: Escherichia coli; experiment: Antibacterial activity against Escherichia coli ATCC 25922 incubated for 2 hrs in presence of sodium phosphate buffer at pH 2 by broth microdilution method; assay type: functional; settings: ATCC 25922, 2 h
[21] = test system: Escherichia coli; experiment: Antibacterial activity against Escherichia coli ATCC 25922 incubated for 2 hrs in presence of sodium phosphate buffer at pH 10 by broth microdilution method; assay type: functional; settings: ATCC 25922, 2 h
[22] = test system: Escherichia coli; experiment: Antibacterial activity against Escherichia coli ATCC 25922 in presence of NaBH4 by broth microdilution method; assay type: functional
[23] = test system: Staphylococcus aureus; experiment: Antibacterial activity against Staphylococcus aureus ATCC 29213 using preheated compound at 100 degreeC for 1 hr by broth microdilution method; assay type: functional; settings: ATCC 29213, 1 h
[24] = test system: Staphylococcus aureus; experiment: Antibacterial activity against Staphylococcus aureus ATCC 29213 in presence of KCl by broth microdilution method; assay type: functional
[25] = test system: Staphylococcus aureus; experiment: Antibacterial activity against Staphylococcus aureus ATCC 29213 in presence of MgCl2 by broth microdilution method; assay type: functional
[26] = test system: Staphylococcus aureus; experiment: Antibacterial activity against Staphylococcus aureus ATCC 29213 in presence of ZnCl2 by broth microdilution method; assay type: functional
[27] = test system: Staphylococcus aureus; experiment: Antibacterial activity against Staphylococcus aureus ATCC 29213 in presence of 12.5% serum by broth microdilution method; assay type: functional
[28] = test system: Staphylococcus aureus; experiment: Antibacterial activity against Staphylococcus aureus ATCC 29213 in presence of 50% serum by broth microdilution method; assay type: functional
[29] = test system: Staphylococcus aureus; experiment: Antibacterial activity against Staphylococcus aureus ATCC 29213 incubated for 2 hrs in presence of sodium phosphate buffer at pH 4 by broth microdilution method; assay type: functional; settings: ATCC 29213, 2 h
[30] = test system: Staphylococcus aureus; experiment: Antibacterial activity against Staphylococcus aureus ATCC 29213 incubated for 2 hrs in presence of sodium phosphate buffer at pH 10 by broth microdilution method; assay type: functional; settings: ATCC 29213, 2 h
[31] = test system: Staphylococcus aureus; experiment: Antibacterial activity against Staphylococcus aureus ATCC 29213 in presence of H202 by broth microdilution method; assay type: functional
[32] = test system: Escherichia coli; experiment: Antibacterial activity against ciprofloxacin-resistant Escherichia coli ATCC 25922 incubated for 18 to 24 hrs; assay type: functional
[33] = test system: Lipopolysaccharide (LPS); experiment: Displacement of BODIPY-TR-cadaverine from Escherichia coli O111:B4 LPS by spectrofluorophotometric method
[34] = test system: Lipopolysaccharide (LPS); experiment: Displacement of BODIPY-TR-cadaverine from Escherichia coli O111:B4 LPS assessed as increase in fluorescence intensity at 64 uM by spectrofluorophotometric method relative to control
[35] = test system: Escherichia coli; experiment: Induction of outer membrane permeabilization in Escherichia coli UB1005 assessed as increase in NPN uptake at 4 uM by spectrofluorophotometric assay relative to control
[36] = Drug localization in Escherichia coli ATCC 25922 at 1 to 2 times MIC incubated for 1 hr using FITC-labelled peptides by propidium iodide-staining based regular fluorescent microscopy; assay type: ADME
[37] = Drug localization in Staphylococcus aureus ATCC 29213 at 2 times MIC incubated for 1 hr using FITC-labelled peptides by propidium iodide-staining based super resolution fluorescent microscopy; assay type: ADME
[38] = test system: Staphylococcus aureus; experiment: Antibacterial activity against Staphylococcus aureus ATCC 29213 incubated for 18 to 24 hrs using FITC-labelled peptide by broth microdilution method; assay type: functional, organism-based
[39] = test system: Escherichia coli; experiment: Induction of cell membrane disruption in Escherichia coli ATCC 25922 after 30 mins by propidium iodide-staining based flow cytometric analysis; assay type: organism-based
[40] = test system: Staphylococcus aureus; experiment: Induction of cell membrane disruption in Staphylococcus aureus ATCC 29213 after 30 mins by propidium iodide-staining based flow cytometric analysis; assay type: organism-based
[41] = test system: Escherichia coli; experiment: Induction of cell membrane disruption in Escherichia coli ATCC 25922 assessed as propidium iodide-positive cells at 2 times MIC after 30 mins by flow cytometric analysis (reference value: 0.8%)
[42] = test system: Escherichia coli; experiment: Induction of cell membrane disruption in Escherichia coli ATCC 25922 assessed as appearance of partial membrane corrugation at 1 times MIC after 60 mins by field emission scanning electron microscopy; assay type: organism-based
[43] = test system: Staphylococcus aureus; experiment: Induction of cell membrane disruption in Staphylococcus aureus ATCC 29213 assessed as apperance of broken and empty cell envelope at 2 times MIC after 60 mins by field emission scanning electron microscopy; assay type: organism-based
[44] = test system: Escherichia coli; experiment: Induction of cell membrane disruption in Escherichia coli ATCC 25922 assessed as seperation of cytoplasmic membrane from outer membrane at 2 times MIC after 60 mins by transmission electron microscopy; assay type: organism-based

Compound `CC(C)C[C@H](NC(=O)[C@H](CCCNC(=N)N)NC(=O)[C@H](Cc1c[nH]c2ccccc12)NC(=O)[C@H](CCCNC(=N)N)NC(=O)[C@@H](NC(=O)[C@H](CCCCN)NC(=O)[C@H](Cc1c[nH]c2ccccc12)NC(=O)[C@H](CCCNC(=N)N)NC(=O)[C@H](CC(C)C)NC(=O)[C@H](CCCNC(=N)N)NC(=O)[C@@H](N)Cc1c[nH]c2ccccc12)[C@@H](C)O)C(=O)N[C@@H](CCCCN)C(N)=O` (H-WRLRWKTRWRLK-NH2) has an MIC [1] of 4 µM (≈ 7.14 µg/mL), an MIC [2] of 4 µM (≈ 7.14 µg/mL) and an MIC [3] of 4 µM (≈ 7.14 µg/mL). The MIC [4] was 2 µM (≈ 3.57 µg/mL), the MIC [5] was 4 µM (≈ 7.14 µg/mL) and the MIC [6] was 4 µM (≈ 7.14 µg/mL). It also gave an MIC [7] of 2 µM (≈ 3.57 µg/mL), an MHC [8] of over 128 µM and a viability at 24 h [9] of at least 70%. The viability at 24 h, […] [10] was at most 90%, the MIC [11] was 4 µM and the “log(activity)” value [12] was 1. For the same compound, the “log(activity)” value [13] was 1, the MIC [14] was 2 µM and the MIC [15] was 1 µM. For the same compound, the MIC [16] was 4 µM, the MIC [17] was 4 µM and the MIC [18] was 4 µM. It also gave an MIC [19] of 8 µM, an MIC [20] of 4 µM and an MIC [21] of 4 µM. It also gave an MIC [22] of 4 µM, an MIC [23] of 2 µM (≈ 3.57 µg/mL) and an MIC [24] of 2 µM. The MIC [25] was 2 µM, the MIC [26] was 4 µM and the MIC [27] was 4 µM. It also gave an MIC [28] of 8 µM, an MIC [29] of 4 µM and an MIC [30] of 4 µM. For the same compound, the MIC [31] was 4 µM, the MIC [32] was 4 µM (≈ 7.14 µg/mL) and the Activity [33] was “Dose-dependent effect”. The Activity [34] was 92%, the Activity [35] was 90% and the Drug uptake [36] was “Active”. The Drug uptake [37] was “Active”, the Activity [38] was “Active” and the Activity [39] was “Dose-dependent effect”. For the same compound, the Activity [40] was “Dose-dependent effect”, the Activity [41] was 91.7% and the Activity [42] was “Active”. For the same compound, the Activity [43] was “Active” and the Activity [44] was “Active”.
